Assay results as given in US12180187B2, “1-phenyl-5-azinylpyrazolyl-3-oxyalkyl acids and their use for controlling unwanted plant growth” (BAYER AKTIENGESELLSCHAFT, priority 2019, dated 2024).

Assays:
MATIN [1] = assay: Post-emergence action against MATIN, 1.28 kg/ha; format: in vivo, Tripleurospermum inodorum (Matricaria inodora); conditions: dosage 1280 g/ha, visual rating about 3 weeks after treatment vs untreated controls (100% = plants died)
Outline: (§1)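 Greenhouse-grown weeds (sandy loam, twin-sown pots) were treated 2–3 weeks post-sowing at one leaf. The spray was an aqueous WP/EC preparation plus 0.5% additive, applied at 600 L/ha. Scoring was visual at ~3 weeks, 0–100% versus untreated controls.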

ALOMY [2] = assay: Post-emergence action against ALOMY, 1.28 kg/ha; format: in vivo, Alopecurus myosuroides; conditions: dosage 1280 g/ha, visual rating about 3 weeks after treatment vs untreated controls
Outline: as §1

SETVI [3] = assay: Pre-emergence action against SETVI, 1280 g/ha; format: in vivo, Setaria viridis; conditions: visual scoring after about 3 weeks vs untreated controls, 100% = plants have died, 0% = like control plants
Outline: (§2)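 Greenhouse pre-emergence test on sown seeds in sandy loam; soil-surface spray of formulated compound with 0.5% additive at 600 L/ha water. Scored visually, % vs untreated, after about 3 weeks.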

STEME [4] = assay: Pre-emergence action against STEME, 1280 g/ha; format: in vivo, Stellaria media; conditions: scored visually after about 3 weeks vs untreated controls (100% = plants have died)
Outline: as §2

SETVI [5] = assay: Post-emergence action against SETVI, 1.28 kg/ha; format: in vivo, Setaria viridis; conditions: dosage 1280 g/ha, visual rating about 3 weeks after treatment vs untreated controls
Outline: as §1

DIGSA [6] = assay: Post-emergence action against DIGSA, 1.28 kg/ha; format: in vivo, Digitaria sanguinalis; conditions: dosage 1280 g/ha, visual rating about 3 weeks after treatment vs untreated controls
Outline: as §1

POAAN [7] = assay: Pre-emergence action against POAAN, 1280 g/ha; format: in vivo, Poa annua; conditions: visual scoring after about 3 weeks vs untreated controls, 100% = plants have died, 0% = like control plants
Outline: as §2

AMARE [8] = assay: Pre-emergence action against AMARE, 1280 g/ha; format: in vivo, Amaranthus retroflexus; conditions: scored visually after about 3 weeks vs untreated controls (100% = plants have died)
Outline: as §2

VERPE [9] = assay: Pre-emergence action against VERPE, 1280 g/ha; format: in vivo, Veronica persica; conditions: scored visually after about 3 weeks vs untreated controls (100% = plants have died)
Outline: as §2

LOLRI [10] = assay: Pre-emergence action against LOLRI, 1280 g/ha; format: in vivo, Lolium rigidum; conditions: visual scoring after about 3 weeks vs untreated controls, 100% = plants have died, 0% = like control plants
Outline: as §2

STEME [11] = assay: Post-emergence action against STEME, 1.28 kg/ha; format: in vivo, Stellaria media; conditions: dosage 1280 g/ha, visual rating about 3 weeks after treatment vs untreated controls (100% = plants died)
Outline: as §1

MATIN [12] = assay: Pre-emergence action against MATIN, 1280 g/ha; format: in vivo, Tripleurospermum inodorum (Matricaria inodora); conditions: scored visually after about 3 weeks vs untreated controls (100% = plants have died)
Outline: as §2

KCHSC [13] = assay: Pre-emergence action against KCHSC, 1280 g/ha; format: in vivo, Bassia scoparia; conditions: scored visually after about 3 weeks vs untreated controls (100% = plants have died)
Description: 1. Pre-Emergence Herbicidal Effect and Crop Plant Compatibility a) Seeds of mono- and dicotyledonous weed plants are placed in plastic pots in sandy loam soil (doubly sown with one species each of mono- or dicotyledonous weed plants per pot) and covered with soil. The compounds of the invention, formulated in the form of wettable powders (WP) or as emulsion concentrates (EC), are then applied onto the surface of the covering soil as aqueous suspension or emulsion with addition of 0.5% additive at a water application rate equivalent to 600 litres per hectare. After the treatment, the pots are placed in a greenhouse and kept under good growth conditions for the trial plants. After about 3 weeks, the effect of the preparations is scored visually in comparison with untreated controls as percentages. For example, 100% activity=the plants have died, 0% activity=like control plants. 1. Pre-Emergence Effectiveness Tables 1 to 12 below show the effects of selected compounds of the general formula (I) according to Tables 1 and 2 on various harmful plants and at an application rate corresponding to 1280 g/ha, which were obtained by the experimental procedure mentioned above.

ABUTH = assay: Post-emergence action against ABUTH, 1.28 kg/ha; format: in vivo, Abutilon theophrasti; conditions: dosage 1280 g/ha, visual rating about 3 weeks after treatment vs untreated controls (100% = plants died)
Outline: as §1

ECHCG [14] = assay: Pre-emergence action against ECHCG, 1280 g/ha; format: in vivo, Echinochloa crus-galli; conditions: visual scoring after about 3 weeks vs untreated controls, 100% = plants have died, 0% = like control plants
Outline: as §2

ALOMY [15] = assay: Pre-emergence action against ALOMY, 1280 g/ha; format: in vivo, Alopecurus myosuroides; conditions: visual scoring after about 3 weeks vs untreated controls, 100% = plants have died, 0% = like control plants
Outline: as §2

ECHCG [16] = assay: Post-emergence action against ECHCG, 1.28 kg/ha; format: in vivo, Echinochloa crus-galli; conditions: dosage 1280 g/ha, visual rating about 3 weeks after treatment vs untreated controls
Outline: as §1

POAAN [17] = assay: Post-emergence action against POAAN, 1.28 kg/ha; format: in vivo, Poa annua; conditions: dosage 1280 g/ha, visual rating about 3 weeks after treatment vs untreated controls
Outline: as §1

KCHSC [18] = assay: Post-emergence action against KCHSC, 1.28 kg/ha; format: in vivo, Bassia scoparia; conditions: dosage 1280 g/ha, visual rating about 3 weeks after treatment vs untreated controls (100% = plants died)
Outline: as §1

VERPE [19] = assay: Post-emergence action against VERPE, 1.28 kg/ha; format: in vivo, Veronica persica; conditions: dosage 1280 g/ha, visual rating about 3 weeks after treatment vs untreated controls (100% = plants died)
Outline: as §1

DIGSA [20] = assay: Pre-emergence action against DIGSA, 1280 g/ha; format: in vivo, Digitaria sanguinalis; conditions: visual scoring after about 3 weeks vs untreated controls, 100% = plants have died, 0% = like control plants
Outline: as §2

AMARE [21] = assay: Post-emergence action against AMARE, 1.28 kg/ha; format: in vivo, Amaranthus retroflexus; conditions: dosage 1280 g/ha, visual rating about 3 weeks after treatment vs untreated controls (100% = plants died)
Outline: as §1

LOLRI [22] = assay: Post-emergence action against LOLRI, 1.28 kg/ha; format: in vivo, Lolium rigidum; conditions: dosage 1280 g/ha, visual rating about 3 weeks after treatment vs untreated controls
Outline: as §1

Structure (SMILES)	Post-emergence action against MATIN (MATIN [1])	Post-emergence action against ALOMY (ALOMY [2])	Pre-emergence action against SETVI (SETVI [3])	Pre-emergence action against STEME (STEME [4])	Post-emergence action against SETVI (SETVI [5])	Pre-emergence action against POAAN (POAAN [7])	Pre-emergence action against AMARE (AMARE [8])	Pre-emergence action against VERPE (VERPE [9])	Pre-emergence action against LOLRI (LOLRI [10])	Post-emergence action against STEME (STEME [11])	Pre-emergence action against MATIN (MATIN [12])	Pre-emergence action against KCHSC (KCHSC [13])	Pre-emergence action against ECHCG (ECHCG [14])	Pre-emergence action against ALOMY (ALOMY [15])	Post-emergence action against ECHCG (ECHCG [16])	Post-emergence action against POAAN (POAAN [17])	Post-emergence action against KCHSC (KCHSC [18])	Post-emergence action against VERPE (VERPE [19])	Pre-emergence action against DIGSA (DIGSA [20])	Post-emergence action against AMARE (AMARE [21])	also measured
O=C(O)C1CCCN1C(=O)COc1nn(-c2ccccc2F)c(-c2ccc(F)nc2)c1Br (centres unmarked) [Example X-009]	90%	100%	100%	100%	100%	100%	100%	100%	100%	100%	100%	90%	100%	100%	100%	100%	90%	100%	90%	100%	Post-emergence action against DIGSA (DIGSA [6]): 90%; Post-emergence action against ABUTH (ABUTH): 100%
COC(=O)CNC(=O)COc1nn(-c2ccc(F)cc2)c(-c2ccc(F)nc2)c1C(F)(F)F [Example X-020]	90%	100%	100%	90%		100%	90%	90%	100%	100%	90%	90%	100%	100%	100%	100%	100%	100%	100%	100%	Post-emergence action against ABUTH (ABUTH): 90%
O=C(COc1nn(-c2ccc(F)cc2F)c(-c2ccc(F)nc2)c1Br)NO [Example X-028]	100%	100%	100%	100%	90%	100%	100%	90%	100%	90%	100%	100%	100%	90%	100%	100%	90%	100%	100%		
CCOC(=O)COc1nn(-c2ccccc2F)c(-c2cncnc2)c1[N+](=O)[O-] [VI-005]	90%	90%	100%	100%		100%	100%	100%	100%	100%	100%	90%	90%	90%	90%	100%	90%	90%	100%	90%	Post-emergence action against ABUTH (ABUTH): 90%
COC(=O)[C@@H](C)Oc1nn(-c2ccccc2F)c(-c2cncnc2)c1[N+](=O)[O-] [VI-006]	100%		100%	90%		100%	90%	100%	100%	100%	100%	100%	100%			100%	90%	90%	100%		Post-emergence action against DIGSA (DIGSA [6]): 90%; Post-emergence action against LOLRI (LOLRI [22]): 100%
CC(Oc1nn(-c2ccccc2F)c(-c2ccc(F)nc2)c1Br)C(=O)O (centres unmarked) [VII-096]	90%	100%	100%	100%	90%	100%	100%	100%	100%	100%	100%	100%	100%	100%	90%	100%	90%	90%	100%	100%	Post-emergence action against DIGSA (DIGSA [6]): 100%
